Where a name gives a salt, the structure may show the parent alone.
Test system: IL-1α (cytokine expression in hTERT keratinocytes)
Experiment: In vitro assay: IL-1α in supernatants of IL-1β-treated hTERT keratinocytes (sandwich immunoassay, indexed to ATP viability)
Assay type: cell-based, human
Conditions: for Avg IL-1α measurement: hTERT keratinocytes, 18 hrs, 6 replicates; for IL-1α reduction compared in words (significance groupings): 500 ppm, IL-1β treated hTERT keratinocytes, >95% confidence
Experimental: The following in vitro assay test was conducted to determine the effect of White Tea Extract, Panthenol and Glycyrrhizinate salt on cytokine expression in hTERT keratinocytes:
BACKGROUND: hTERT-keratinocytes are a telomerase-immortalized neonatal epidermal keratinocyte line. Cell cultures of this type are known in the literature and have been used as models for multiple pathways as shown in the following references: Shay and Wright; Carcinogenesis, vol 26; no 5, pp 867-74, 2005; Bodner, et. al., Science, vol 279 pp 349-52, 1998; Ramirez, et. al., Oncogene, 22; pp 433-44, 2002. These cells display many features characteristic of normal primary keratinocytes and respond to normal growth controls in vitro.
TEST PROTOCOL: all measures were run in replicate (n=6).
To ensure proper levels of the biological active molecules for the in vitro study, dilution studies are conducted and ATP is analyzed for the highest non-cytotoxic concentration. White Tea Extract (H1615 WS, lot 98680094S-005) at a level of 500 ppm, Panthenol (lot 10063909S-018) at a level of 500 ppm, and Glycyrrhizinate salt (Barnet 25908N297) at a level of 500 ppm are used for this study. ATP analysis is described below.
ATP analysis is conducted using Cell Titer-Glo. The CellTiter-Glo Luminescent Cell Viability Assay is obtained from Promega Corporation (Madison, Wis.). This assay is a homogeneous method for determining the number of viable cells in culture based on quantitation of ATP present, signaling the presence of metabolically active cells. After the final treatment and supernatants collected, the CellTiter-Glo reagent is added. The reagent is then transferred to a BD Falcon (Franklin Lakes, N.J.) Microtest 96-well Assay Plate (black, flat bottom, reference 353945, lot 041151). Luminescence is read on a Perkin Elmer Fluorimeter (Wallac Envision 2101 Multilabel Reader). Relative luminescence units are plotted in percent control versus treatment concentration.
hTERT cells are cultured in complete EpiLife (Cascade Biologics, Portland, Oreg.) culture media in T75 culture flasks (Falcon, Becton Dickinson Labware, Franklin Lakes, N.J.) under 37° C./5% CO2 conditions. […] 2 ml of the cell suspension (density 20,000/cm^2) are plated in each well of a 6-well culture dish (Falcon) and cultured under 37° C./5% CO2 conditions overnight. A complete media exchange is performed and the cells are again cultured overnight under 37° C./5% CO2 conditions. The culture media is removed and 2 ml of treatment are placed in each well and the cells are cultured for 18 hrs. For all legs other than Control, IL-1β is added to the treatment at 1 nanogram per mL (for 2 nanograms per treatment). After the treatment period, the cell culture supernatants are collected and analyzed immediately for Interleukin-1α with an R&D Systems (Minneapolis, Minn.) kit which deploys the quantitative sandwich immunoassay technique. ATP is measured from cell lysates an indicator of viability. IL-1α is indexed to cell viability to ensure a proper reading of actual activity.
TESTING: This test was conducted and the analysis of the data is as follows. Statistical differences among treatments for IL-1α were analyzed via JMP using a log-transform before the analysis of variance. The log-transform ensures that the response data are normally distributed and have equal variance. […]

[1] = 500 ppm ingredient + IL-1β 1 nanogram per mL, IL-1α indexed to cell viability

Structure (SMILES) | Avg IL-1α measurement (4.5 ppm + IL-1β, positive control) | Avg IL-1α measurement [1] | IL-1α reduction compared in words (significance groupings)
C[C@H]1C[C@H]2[C@@H]3CCC4=CC(=O)C=C[C@]4(C)[C@@]3(F)[C@@H](O)C[C@]2(C)[C@@]1(O)C(=O)CCl [Clobetasol, reference compound] | 14.29 |  | 
CC(C)(CO)[C@@H](O)C(=O)NCCCO [Panthenol] |  | 24.41 | not significantly different than the IL-1β treated cells
CC1(C)[C@@H](O[C@H]2O[C@H](C(=O)O)[C@@H](O)[C@H](O)[C@H]2O[C@H]2O[C@@H](C(=O)O)[C@H](O)[C@@H](O)[C@@H]2O)CC[C@]2(C)[C@H]3C(=O)C=C4[C@@H]5C[C@@](C)(C(=O)O)CC[C@]5(C)CC[C@@]4(C)[C@]3(C)CC[C@@H]12 [Glycyrrhizinate salt] |  | 17.57 | slightly higher IL-1α reduction
